Test results from patent publication US10479789B2, “Pyrido[1,2-A]pyrimidone analog, crystal form thereof, intermediate thereof and preparation method therefor” (Chia Tai Tianqing Pharmaceutical Group Co., Ltd., priority 2015, dated 2019).

Tests used:
[1] = Stability of crystalline Form IX of Compound 1 in different solvents (XRPD after stirring); type: physicochemical; details: stirred at 40° C.; for Results (crystalline state by XRPD): 2 days
Method: Several samples of crystalline Form IX of Compound 1 in a suitable amount were taken, respectively added to 0.3-0.4 mL of a single solvent or a mixed solvent as shown in the following table, and stirred at 40° C. After stirring for 2 days, the samples were centrifuged. Solid in the samples was collected and its crystalline state was detected by XRPD.

[2] = Solid state stability of crystalline Form IX under high temperature, high humidity and strong light; type: physicochemical
Method: About 10 mg of crystalline Form IX of Compound 1 was weighed and placed on a bottom of a glass sample bottle to form a thin layer. For the samples placed under the conditions of 60° C. and room temperature/92.5% RH, the top of the bottles was covered with aluminum foil, and several holes were made in aluminum foil, which is ensure that the samples were fully exposed to the air in the environment; for the samples placed under strong light (5 Klx), the bottles were sealed with a screw cap. Another sample of 15 mg of crystalline Form IX was taken and placed according to the method as described above for detecting the crystalline form of the sample. The samples placed under different conditions were sampled and detected on day 5 and day 10, and the detection results were compared with the initial detection results on day 0.

[3] = High temperature 60° C. (opened), day 5
[4] = High temperature 60° C. (opened), day 5 and day 10
[5] = High temperature 60° C. (opened), day 10
[6] = Light 5KIx (closed), day 5 and day 10
[7] = Room temperature/92.5% RH (opened), day 5
[8] = Room temperature/92.5% RH (opened), day 5 and day 10
[9] = Room temperature/92.5% RH (opened), day 10

## COc1ncc(-c2ccc3ncc(OCCN(C)C)c(=O)n3c2)cc1NS(=O)(=O)c1ccc(F)cc1Cl [crystalline Form IX of Compound 1]
[1]; acetone
  Appearance (2 days): suspension
  Results (crystalline state by XRPD): crystalline
[1]; acetone-water (1:2)
  Appearance (2 days): suspension
  Results (crystalline state by XRPD): crystalline
[1]; acetonitrile
  Appearance (2 days): suspension
  Results (crystalline state by XRPD): crystalline
[1]; ethanol
  Appearance (2 days): suspension
  Results (crystalline state by XRPD): crystalline
[1]; ethanol-water (3:1)
  Appearance (2 days): suspension
  Results (crystalline state by XRPD): crystalline
[1]; ethyl acetate
  Appearance (2 days): suspension
  Results (crystalline state by XRPD): crystalline
[1]; isopropanol
  Appearance (2 days): suspension
  Results (crystalline state by XRPD): crystalline
[1]; isopropanol-water (1:1)
  Appearance (2 days): suspension
  Results (crystalline state by XRPD): crystalline
[1]; methanol
  Appearance (2 days): suspension
  Results (crystalline state by XRPD): crystalline
[1]; methanol-water (3:1)
  Appearance (2 days): suspension
  Results (crystalline state by XRPD): crystalline
[1]; tetrahydrofuran
  Appearance (2 days): suspension
  Results (crystalline state by XRPD): crystalline
[2]; [3]
  Content (%): 100.64%
  Total impurities (%): 0.32%
[2]; [4]
  Appearance: White
  Crystalline Form: crystalline
[2]; [5]
  Content (%): 100.55%
  Total impurities (%): 0.33%
[2]; Light 5KIx (closed), day 5
  Content (%): 100.43%
  Total impurities (%): 0.31%
[2]; [6]
  Appearance: White
  Crystalline Form: crystalline
[2]; Light 5KIx (closed), day 10
  Content (%): 101.10%
  Total impurities (%): 0.32%
[2]; [7]
  Content (%): 101.05%
  Total impurities (%): 0.32%
[2]; [8]
  Appearance: White
  Crystalline Form: crystalline
[2]; [9]
  Content (%): 101.16%
  Total impurities (%): 0.32%
[2]; day 0 (initial)
  Appearance: White
  Content (%): 101.02%
  Crystalline Form: crystalline
  Total impurities (%): 0.32%
